According to patent publication US6872850B2, “Small molecule inhibitors of secretion of proteins encoded by ARE-mRNAs” (Message Pharmaceuticals, priority 2001, dated 2005):
“Also recorded” adds a separate entry of the source.

Legend:
[1] = test system: 3′ UTR of the TNFα gene; experiment: cell-based luciferase reporter assay, 5B cell line (luciferase gene with entire 3′ UTR of the TNFα gene); parameters: species or system mouse; settings: for Luciferase 5B (% of DMSO control) / Luciferase 5B/3B (% of DMSO control 5B)/(% of DMSO control 3B): 10 μM compound; for Luciferase 5B (% of DMSO control): 1 h, then LPS, 5B cell line; for Luciferase 5B/3B (% of DMSO control 5B)/(% of DMSO control 3B): ratio of 5B to control 3B cell line
Procedure: The candidate compounds were tested in a high-throughput, cell-based luciferase reporter assay. For this assay, a commercially available mouse macrophage Raw 264.7 cell line was stably transfected with a construct containing the CMV promoter operably linked to the luciferase gene which was modified using standard molecular biology techniques to contain the entire 3′ UTR of the TNFα gene. This 3′ UTR is important for the stability and translation of TNFα in cells. To control for effects of candidate compounds that are not specific for TNFα, a control cell line, called “3B,” was generated by stably transfecting the 264.7 cell line with a commercially available construct containing the luciferase gene (without the addition of the heterologous 3′ UTR of the TNFα gene) under the regulation of the CMV promoter.
[…] Then, lipopolysaccharide (LPS) was added to stimulate TNFα secretion. Luciferase activity was measured by determining the luminescence intensity due to the reaction of lucifern, ATP, Mg^2+, and molecular O2 (see, for example, Ausubel et al., supra). The luciferase activity in a cell incubated with a candidate compound was reported as a percentage of the luciferase activity for the corresponding cell incubated with DMSO vehicle only.
After correction for any effect caused by the administration of the DMSO only vehicle control, the effect of a candidate compound on luciferase activity in the 3B control cell line represents the global effect of the compound on any step required for expression or activity of luciferase protein, such as luciferase gene transcription, mRNA processing, mRNA stability, translation, protein stability, or enzymatic activity. […] In this case, the luciferase activity in the 5B cell line treated with the DMSO vehicle control is similar to the luciferase activity in the control 3B cell line treated with the candidate compound. Thus, the response of the 5B cell line (as a percent of the DMSO control) and the ratio of the luciferase activity in the 5B cell line (as a percent of the DMSO control) to the luciferase activity in the control 3B cell line (as a percent of the DMSO control) are similar. In desirable embodiments, the response of the 5B cell line and the 5B/3B ratio differ by less than 50, 40, 30, 20, 10, or 5%.

[2] = test system: TNFα; experiment: ELISA of TNFα secreted into the media after LPS; type: cell-based; settings: for TNFα Secretion (% of DMSO control): 10 μM compound, 1 h, then LPS; for effect on amount of secreted TNFα (direct TNFα secretion assay), in words: after LPS stimulation
Procedure: The ability of candidate compounds to reduce the amount of secreted TNFα was also directly tested using an ELISA assay. […] A standard ELISA analysis was used to measure the amount of TNFα secreted into the media (see, for example, Ausubel et al., supra). The effect of a candidate compound on TNFα secretion in this assay is reported in the following tables as a percentage of the amount of TNFα secreted by a control cell that was administered a DMSO vehicle control only.

| Molecule | Luciferase 5B (% of DMSO control) [1] | Luciferase 5B/3B (% of DMSO control 5B)/(% of DMSO control 3B) [1] | TNFα Secretion (% of DMSO control) [2] | effect on luciferase activity in the 5B cell line (luciferase assay), in words [1] | effect on amount of secreted TNFα (direct TNFα secretion assay), in words [2] |
| --- | --- | --- | --- | --- | --- |
| CC(C)CC(NC(=O)c1ccc(C(=NNC(=N)N)c2ccccc2)cc1)C(=O)N1CCN(C(=O)C(Cc2cccc3ccccc23)NC(=O)c2ccc(C(=NNC(=N)N)c3ccccc3)cc2)CC1 (mixture of isomers) [MES 10191] | 46 % of DMSO control | 86 (% of DMSO control 5B)/(% of DMSO control 3B) | 22 % of DMSO control |  |  |
| CC(C)C[C@H](NC(=O)c1ccc(C(=NNC(=N)N)c2ccccc2)cc1)C(=O)N1CCN(C(=O)[C@H](Cc2ccccc2)NC(=O)c2ccc(C(=O)c3ccccc3)cc2)CC1.O=C(O)C(F)(F)F [MES 10168, (4-E)-Guanylhydrazone of 1-[(S)-N-(4-benzoylbenzoyl)-2-amino-3-phenylpropanoyl]-4-[(2S)-N-(4-benzoylbenzoyl)-2-amino-4-methylpentanoyl]-1,4-piperazine trifluoroacetate] | 104 % of DMSO control | 127 (% of DMSO control 5B)/(% of DMSO control 3B) | 35 % of DMSO control |  |  |
| CC(C)C[C@H](NC(=O)c1ccc(C(=O)c2ccccc2)cc1)C(=O)N1CCN(C(=O)CCC(=O)N2CCN(c3ccccc3)CC2)CC1 [MES 10230] | 41 % of DMSO control | 52 (% of DMSO control 5B)/(% of D | 77 % of DMSO control |  |  |
| CC(=NN=C(N)N)c1cccc(C(=O)NC(CC(C)C)C(=O)NCCCNC(=O)C(Cc2ccccc2)NC(=O)c2ccc(C(=NN=C(N)N)c3ccccc3)cc2)c1 (mixture of isomers) [MES 11562] | 44 % of DMSO control | 38 (% of DMSO control 5B)/(% of D | 50 % of DMSO control | decrease TNFα secretion | decreased the amount of secreted TNFα |
| CC(C)CC(NC(=O)c1ccc(C(=NNC(=N)N)c2ccccc2)cc1)C(=O)N1CCN(C(=O)C(Cc2ccccc2)NC(=O)c2ccc([N+](=O)[O-])cc2)CC1 (mixture of isomers) [MES 10233] | 36 % of DMSO control | 40 (% of DMSO control 5B)/(% of D | 42 % of DMSO control |  |  |
| CC(C)CC(NC(=O)c1ccc(C(=NN=C(N)N)c2ccccc2)cc1)C(=O)NCCCNC(=O)C(Cc1ccccc1)NC(=O)c1ccc(C(=NN=C(N)N)c2ccccc2)cc1 (mixture of isomers) [MES 11561] | 24 % of DMSO control | 26 (% of DMSO control 5B)/(% of D | 41 % of DMSO control | decrease TNFα secretion; also recorded: greatest inhibition | decreased the amount of secreted TNFα |
| CC(=NNC(=N)N)c1cccc(C(=O)NC(CC(C)C)C(=O)N2CCN(C(=O)C(Cc3ccc4ccccc4c3)NC(=O)c3ccc(C(=NNC(=N)N)c4ccccc4)cc3)CC2)c1 (mixture of isomers) [MES 10261] | 76 % of DMSO control | 71 (% of DMSO control 5B)/(% of DMSO control 3B) | 40 % of DMSO control |  |  |
| CC(=NNC(=N)N)c1cccc(C(=O)N[C@@H](CC(C)C)C(=O)N2CCN(C(=O)[C@H](Cc3ccccc3)NC(=O)c3ccc(C(=O)c4ccccc4)cc3)CC2)c1.O=C(O)C(F)(F)F [MES 10173, (4-E)-Guanylhydrazone of 1-[(S)-N-(4-benzoylbenzoyl)-2-amino-3-phenylpropanoyl]-4-[(2S)-N-(3-acetylbenzoyl)-2-amino-4-methylpentanoyl]-piperazine trifluoroaceteate] | 26 % of DMSO control |  | 42 % of DMSO control |  |  |
| CC(=NNC(=N)N)c1cccc(C(=O)NC(CC(C)C)C(=O)N2CCN(C(=O)C(Cc3ccc(Cl)cc3)NC(=O)c3ccc(C(=NNC(=N)N)c4ccccc4)cc3)CC2)c1 (mixture of isomers) [MES 10258] | 43 % of DMSO control | 39 (% of DMSO control 5B)/(% of DMSO control 3B) | 42 % of DMSO control |  |  |
| CC(C)CC(NC(=O)c1ccc(C(=NNC(=N)N)c2ccccc2)cc1)C(=O)N1CCN(C(=O)C(Cc2ccccc2)NC(=O)c2ccccc2)CC1 (stereo not drawn) [MES 10248] | 56 % of DMSO control | 72 (% of DMSO control 5B)/(% of D | 39 % of DMSO control |  |  |
| (1-Z,4-E)-Bisguanylhydrazone of 1-[(S)-N-(4-benzoylbenzoyl)-2-amino-3-phenylpropanoyl]-4-[(2S)-N-(3-acetylbenzoyl)-2-amino-4-methylpentanoyl]-piperazine bis trifluoroacetate [MES 10172] | 38 % of DMSO control | 49 (% of DMSO control 5B)/(% of DMSO control 3B) | 60 % of DMSO control |  |  |
| CC(C)CC(NC(=O)c1ccc(C(=NNC(=N)N)c2ccccc2)cc1)C(=O)N1CCN(C(=O)C(CC2CCCCC2)NC(=O)c2ccc(C(=NNC(=N)N)c3ccccc3)cc2)CC1 (mixture of isomers) [MES 10238] | 32 % of DMSO control | 78 (% of DMSO control 5B)/(% of DMSO control 3B) | 23 % of DMSO control |  |  |
| CC(C)CC(NC(=O)c1ccc(C(=NNC(=N)N)c2ccccc2)cc1)C(=O)N1CCN(C(=O)C(Cc2ccc(F)cc2)NC(=O)c2ccc(C(=NNC(=N)N)c3ccccc3)cc2)CC1 (mixture of isomers) [MES 10236] | 18 % of DMSO control | 25 (% of DMSO control 5B)/(% of DMSO control 3B) | 34 % of DMSO control |  |  |
| C/C(=N\NC(=N)N)c1cccc(C(=O)N[C@@H](CC(C)C)C(=O)N2CCN(C(=O)[C@H](Cc3ccccc3)NCc3ccc([N+](=O)[O-])cc3)CC2)c1 [MES 10243] | 81 % of DMSO control | 79 (% of DMSO control 5B)/(% of D | 73 % of DMSO control |  |  |
| CC(C)CC(NC(=O)c1ccccc1)C(=O)N1CCN(C(=O)C(Cc2ccccc2)NC(=O)c2ccc(C(=NNC(=N)N)c3ccccc3)cc2)CC1 (mixture of isomers) [MES 10222] | 36 % of DMSO control | 49 (% of DMSO control 5B)/(% of D | 49 % of DMSO control |  |  |
| CC(C)CC(NC(=O)c1ccc(C(=NNC(=N)N)c2ccccc2)cc1)C(=O)N1CCN(C(=O)C(Cc2ccc(-c3ccccc3)cc2)NC(=O)c2ccc(C(=NNC(=N)N)c3ccccc3)cc2)CC1 (mixture of isomers) [MES 10193] | 23 % of DMSO control | 38 (% of DMSO control 5B)/(% of DMSO control 3B) | 20 % of DMSO control |  |  |
| CC(=NNC(=N)N)c1cccc(C(=O)NC(CC(C)C)C(=O)N2CCN(C(=O)C(Cc3ccc(-c4ccccc4)cc3)NC(=O)c3ccc(C(=NNC(=N)N)c4ccccc4)cc3)CC2)c1 (mixture of isomers) [MES 10259] | 22 % of DMSO control | 38 (% of DMSO control 5B)/(% of DMSO control 3B) | 36 % of DMSO control |  |  |
| C/C(=N\NC(=N)N)c1cccc(C(=O)N[C@@H](CC(C)C)C(=O)N2CCN(C(=O)[C@H](Cc3ccccc3)NC(=O)c3ccc(OCc4ccccc4)cc3)CC2)c1 [MES 10307] | 38 % of DMSO control | 40 (% of DMSO control 5B)/(% of D | 45 % of DMSO control |  |  |
